# Experimental data taken from ChEMBL document CHEMBL5096196, “Utilizing structure based drug design and metabolic soft spot identification to optimize the in vitro potency and in vivo pharmacokinetic properties leading to the discovery of novel reversible Bruton's tyrosine kinase inhibitors” (Bioorg Med Chem, 2021).
# Assays:
# in vitro [1] = settings: human, liver microsomes
# in vitro [2] = settings: rat, liver microsomes
# [3] = Metabolic stability in rat liver microsomes; type: ADME, Microsome
# [4] = Metabolic stability in human liver microsomes; type: ADME, Microsome
# physchem = settings: octanol/water
# [5] = Apparent permeability of compound across Caco-2/TC-7 monolayers in human Caco-2 cells by LC/MSMS analysis; type: ADME, cell-based
SMILES,remaining at 0.5 h (in vitro [1]) [%],remaining at 0.5 h (in vitro [2]) [%],also measured
O=C(O)/C=N/[C@@H]1CCCN(c2ncnc3[nH]ncc23)C1,13,85,–
N[C@@H](C(=O)N[C@@H]1CCCN(c2ncnc3[nH]ncc23)C1)C1CC1,–,–,Stability [3]: 7%; Stability [4]: < 5%
O=C1[C@H](Nc2cc(F)cc(Cl)c2)CCCN1[C@@H]1CCCN(c2ncnc3[nH]ncc23)C1,–,–,logD (physchem): 4
O=C(N[C@@H]1CCCN(c2ncnc3[nH]ncc23)C1)C(O)Nc1cc(Cl)cc(Cl)c1 (some centres not stated),31,< 5,–
O=C(N[C@@H]1CCCN(c2ncnc3[nH]ncc23)C1)[C@H](O)C1CC1,–,–,Stability [3]: 6%; Stability [4]: < 5%
O=C1[C@H](Nc2cc(F)cc(Cl)c2)CCCN1[C@@H]1CCCN(c2ncnc3[nH]ccc23)C1,–,–,Papp [5]: 28 ×10⁻⁶ cm/s
O=C(CO)N[C@@H]1CCCN(c2ncnc3[nH]ncc23)C1,19,11,–
